Experiments:
Assay type in all cases: in vivo
[1] = system: galium (catchweed bedstraw, Galium aparine); experiment: Test A greenhouse herbicide test, postemergence; conditions: for Galium plant response rating: 0 is no effect, 100 is complete control
Outline: (§1)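 Plants grown in loam soil/sand blend pots were treated postemergence at 2 to 10 cm height, one- to two-leaf stage, with formulated test chemicals. After approximately 10 d in a greenhouse, injury was rated visually against untreated controls on a 0 to 100 scale (0 no effect, 100 complete control).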

[2] = system: blackgrass (Alopecurus myosuroides); experiment: Test A greenhouse herbicide test, postemergence; conditions: for Blackgrass plant response rating: 0 is no effect, 100 is complete control
Outline: as §1

[3] = system: sedge, umbrella (small-flower umbrella sedge, Cyperus difformis); experiment: Test B flooded paddy test; conditions: 250 g ai/ha, Flood; visual rating on scale of 0 to 100 where 0 is no effect and 100 is complete control; 13 to 15 d after treatment
Outline: (§2)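 Plants at the 2-leaf stage were flooded to 3 cm above soil, and test compounds were applied directly into the paddy water, which was held at that depth throughout. After 13 to 15 d in a greenhouse, injury was rated visually against untreated controls on a 0–100 scale (0 no effect, 100 complete control).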

[4] = system: rice (Oryza sativa); experiment: Test B flooded paddy test; conditions: 250 g ai/ha, Flood; visual rating on scale of 0 to 100 where 0 is no effect and 100 is complete control; 13 to 15 d after treatment
Outline: as §2

[5] = system: ducksalad (Heteranthera limosa); experiment: Test B flooded paddy test; conditions: 250 g ai/ha, Flood; visual rating on scale of 0 to 100 where 0 is no effect and 100 is complete control; 13 to 15 d after treatment
Outline: as §2

[6] = system: barnyardgrass (Echinochloa crus-galli); experiment: Test B flooded paddy test; conditions: 250 g ai/ha, Flood; visual rating on scale of 0 to 100 where 0 is no effect and 100 is complete control; 13 to 15 d after treatment
Outline: as §2

[7] = system: foxtail, giant (giant foxtail, Setaria faberii); experiment: Test A greenhouse herbicide test, pre- and postemergence
Outline: (§3)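 Seeds sown in loam–sand blend got a preemergence directed soil spray of compound in non-phytotoxic solvent with surfactant. Postemergence treatment was given at 2–10 cm, one- to two-leaf stage. After ~10 d in greenhouse, injury was rated visually vs untreated controls, 0 (no effect) to 100 (complete control).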

[8] = system: ragweed (common ragweed, Ambrosia elatior); experiment: as above
Outline: as §3

[9] = system: wheat (Triticum aestivum); experiment: as above; conditions: Postemergence; for Wheat plant response rating: 0 is no effect, 100 is complete control
Outline: as §3

[10] = system: corn (Zea mays); experiment: as above; conditions: Postemergence; for Corn plant response rating: 0 is no effect, 100 is complete control
Outline: as §3

[11] = system: kochia (Kochia scoparia); experiment: as above
Outline: as §3

[12] = system: pigweed (Amaranthus retroflexus); experiment: as above
Outline: as §3

[13] = system: ryegrass, Italian (Italian ryegrass, Lolium multiflorum); experiment: as above
Outline: as §3

[14] = system: barnyardgrass (Echinochloa crus-galli); experiment: as above
Outline: as §3

[15] = 125 g ai/ha, 0 to 100 scale where 0 is no effect and 100 is complete control
[16] = Postemergence, 125 g ai/ha, 0 to 100 scale where 0 is no effect and 100 is complete control
[17] = Postemergence, 500 g ai/ha, 0 to 100 scale, 0 is no effect, 100 is complete control
[18] = Preemergence, 125 g ai/ha, 0 to 100 scale where 0 is no effect and 100 is complete control
[19] = Preemergence, 500 g ai/ha, 0 to 100 scale where 0 is no effect and 100 is complete control
[20] = Preemergence, 500 g ai/ha, 0 to 100 scale, 0 no effect, 100 complete control
[21] = 125 g ai/ha, 0 to 100 scale, 0 no effect, 100 complete control
[22] = 500 g ai/ha, visual rating after approx. 10 d, 0 to 100 scale (0 no effect, 100 complete control)
[23] = Postemergence, 125 g ai/ha, 0 to 100 scale, 0 no effect, 100 complete control
[24] = Postemergence, 500 g ai/ha, visual rating after approx. 10 d, 0 to 100 scale (0 no effect, 100 complete control)
[25] = Preemergence, 125 g ai/ha, visual injury rating, 0 to 100 scale (0 no effect, 100 complete control), approx. 10 d

Cc1nn(C)c(=O)c(-c2c(C)n(C)c3ccc(Cl)cc23)c1O [Compound 74]
Plant response rating, Galium [1, 15]: 10 | Galium plant response rating ([1]; 500 g ai/ha, 0 to 100 scale): 20 | Plant response rating, Blackgrass [2, 15]: 20 | Blackgrass plant response rating ([2]; 500 g ai/ha, 0 to 100 scale): 40 | Plant response rating, Sedge, Umbrella [3]: 0 | Plant response rating, Rice [4]: 0 | Plant response rating, Ducksalad [5]: 0 | Plant response rating, Barnyardgrass [6]: 0 | Plant response rating, Foxtail, Giant [7, 16]: 0 | Foxtail, Giant plant response rating [7, 17]: 20 | Foxtail, Giant plant response rating [7, 18]: 0 | Plant response rating, Foxtail, Giant [7, 19]: 0 | Plant response rating, Ragweed [8, 16]: 0 | Ragweed plant response rating [8, 17]: 10 | Ragweed plant response rating [8, 18]: 0 | Plant response rating, Ragweed [8, 19]: 0 | Plant response rating, Wheat [9, 15]: 0 | Wheat plant response rating ([9]; 500 g ai/ha, 0 to 100 scale): 0 | Plant response rating, Corn [10, 15]: 0 | Corn plant response rating ([10]; 500 g ai/ha, 0 to 100 scale): 0 | Plant response rating, Kochia [11, 16]: 30 | Kochia plant response rating [11, 17]: 30 | Kochia plant response rating [11, 18]: 0 | Plant response rating, Kochia [11, 19]: 0 | Plant response rating, Pigweed [12, 16]: 40 | Pigweed plant response rating [12, 17]: 50 | Pigweed plant response rating [12, 18]: 30 | Plant response rating, Pigweed [12, 19]: 50 | Plant response rating, Ryegrass, Italian [13, 16]: 0 | Ryegrass, Italian plant response rating [13, 17]: 0 | Ryegrass, Italian plant response rating [13, 18]: 0 | Plant response rating, Ryegrass, Italian [13, 19]: 0 | Plant response rating, Barnyardgrass [14, 16]: 0 | Barnyardgrass plant response rating [14, 17]: 10 | Barnyardgrass plant response rating [14, 18]: 0 | Plant response rating, Barnyardgrass [14, 20]: 0

COC(=O)Oc1c(C)nn(C)c(=O)c1-c1ccc(Cl)c2ccccc12 [Compound 63]
Plant response rating, Galium [1, 15]: 100 | Galium plant response rating ([1]; 500 g ai/ha, 0 to 100 scale): 100 | Plant response rating, Blackgrass [2, 15]: 70 | Blackgrass plant response rating ([2]; 500 g ai/ha, 0 to 100 scale): 80 | Plant response rating, Sedge, Umbrella [3]: 65 | Plant response rating, Rice [4]: 0 | Plant response rating, Ducksalad [5]: 30 | Plant response rating, Barnyardgrass [6]: 0 | Plant response rating, Foxtail, Giant [7, 16]: 70 | Foxtail, Giant plant response rating [7, 17]: 90 | Foxtail, Giant plant response rating [7, 18]: 40 | Plant response rating, Foxtail, Giant [7, 20]: 70 | Plant response rating, Ragweed [8, 16]: 100 | Ragweed plant response rating [8, 17]: 100 | Ragweed plant response rating [8, 18]: 80 | Plant response rating, Ragweed [8, 20]: 90 | Plant response rating, Wheat [9, 15]: 0 | Wheat plant response rating ([9]; 500 g ai/ha, 0 to 100 scale): 40 | Plant response rating, Corn [10, 15]: 0 | Corn plant response rating ([10]; 500 g ai/ha, 0 to 100 scale): 40 | Plant response rating, Kochia [11, 16]: 100 | Kochia plant response rating [11, 17]: 100 | Kochia plant response rating [11, 18]: 100 | Plant response rating, Kochia [11, 20]: 100 | Plant response rating, Pigweed [12, 16]: 100 | Pigweed plant response rating [12, 17]: 100 | Pigweed plant response rating [12, 18]: 100 | Plant response rating, Pigweed [12, 20]: 100 | Plant response rating, Ryegrass, Italian [13, 16]: 100 | Ryegrass, Italian plant response rating [13, 17]: 100 | Ryegrass, Italian plant response rating [13, 18]: 100 | Plant response rating, Ryegrass, Italian [13, 20]: 100 | Plant response rating, Barnyardgrass [14, 16]: 60 | Barnyardgrass plant response rating [14, 17]: 90 | Barnyardgrass plant response rating [14, 18]: 80 | Plant response rating, Barnyardgrass [14, 20]: 90

CCOC(=O)Oc1c(C)nn(C)c(=O)c1-c1c([N+](=O)[O-])ccc2ccccc12 [Compound 166]
Plant response rating, Galium [1, 21]: 70 | Plant response rating, Galium [1, 22]: 90 | Plant response rating, Blackgrass [2, 21]: 10 | Plant response rating, Blackgrass [2, 22]: 30 | Plant response rating, Sedge, Umbrella [3]: 0 | Plant response rating, Rice [4]: 0 | Plant response rating, Ducksalad [5]: 0 | Plant response rating, Barnyardgrass [6]: 0 | Plant response rating, Foxtail, Giant [7, 23]: 10 | Plant response rating, Foxtail, Giant [7, 24]: 40 | Plant response rating, Foxtail, Giant [7, 25]: 10 | Plant response rating, Foxtail, Giant [7, 19]: 30 | Plant response rating, Ragweed [8, 23]: 30 | Plant response rating, Ragweed [8, 24]: 70 | Plant response rating, Ragweed [8, 25]: 70 | Plant response rating, Ragweed [8, 19]: 90 | Plant response rating, Wheat [9, 21]: 0 | Plant response rating, Wheat [9, 22]: 20 | Plant response rating, Corn [10, 21]: 20 | Plant response rating, Corn [10, 22]: 20 | Plant response rating, Kochia [11, 23]: 50 | Plant response rating, Kochia [11, 24]: 70 | Plant response rating, Kochia [11, 25]: 30 | Plant response rating, Kochia [11, 19]: 90 | Plant response rating, Pigweed [12, 23]: 40 | Plant response rating, Pigweed [12, 24]: 80 | Plant response rating, Pigweed [12, 25]: 80 | Plant response rating, Pigweed [12, 19]: 90 | Plant response rating, Ryegrass, Italian [13, 23]: 40 | Plant response rating, Ryegrass, Italian [13, 24]: 90 | Plant response rating, Ryegrass, Italian [13, 25]: 40 | Plant response rating, Ryegrass, Italian [13, 19]: 90 | Plant response rating, Barnyardgrass [14, 23]: 10 | Plant response rating, Barnyardgrass [14, 24]: 20 | Plant response rating, Barnyardgrass [14, 25]: 10 | Plant response rating, Barnyardgrass [14, 19]: 10

Cn1ncc(O)c(-c2cccc3ccccc23)c1=O [Compound 49]
Plant response rating, Galium [1, 15]: 50 | Galium plant response rating ([1]; 500 g ai/ha, 0 to 100 scale): 80 | Plant response rating, Blackgrass [2, 15]: 10 | Blackgrass plant response rating ([2]; 500 g ai/ha, 0 to 100 scale): 30 | Plant response rating, Sedge, Umbrella [3]: 0 | Plant response rating, Rice [4]: 0 | Plant response rating, Ducksalad [5]: 0 | Plant response rating, Barnyardgrass [6]: 0 | Plant response rating, Foxtail, Giant [7, 16]: 0 | Foxtail, Giant plant response rating [7, 17]: 20 | Foxtail, Giant plant response rating [7, 18]: 0 | Plant response rating, Foxtail, Giant [7, 20]: 10 | Plant response rating, Ragweed [8, 16]: 0 | Ragweed plant response rating [8, 17]: 10 | Ragweed plant response rating [8, 18]: 0 | Plant response rating, Ragweed [8, 20]: 10 | Plant response rating, Wheat [9, 15]: 0 | Wheat plant response rating ([9]; 500 g ai/ha, 0 to 100 scale): 0 | Plant response rating, Corn [10, 15]: 0 | Corn plant response rating ([10]; 500 g ai/ha, 0 to 100 scale): 0 | Plant response rating, Kochia [11, 16]: 0 | Kochia plant response rating [11, 17]: 10 | Kochia plant response rating [11, 18]: 0 | Plant response rating, Kochia [11, 20]: 0 | Plant response rating, Pigweed [12, 16]: 20 | Pigweed plant response rating [12, 17]: 40 | Pigweed plant response rating [12, 18]: 0 | Plant response rating, Pigweed [12, 20]: 40 | Plant response rating, Ryegrass, Italian [13, 16]: 30 | Ryegrass, Italian plant response rating [13, 17]: 50 | Ryegrass, Italian plant response rating [13, 18]: 0 | Plant response rating, Ryegrass, Italian [13, 20]: 30 | Plant response rating, Barnyardgrass [14, 16]: 0 | Barnyardgrass plant response rating [14, 17]: 20 | Barnyardgrass plant response rating [14, 18]: 0 | Plant response rating, Barnyardgrass [14, 20]: 0

COc1nn(C)c(=O)c(-c2c(C(F)F)ccc3ccccc23)c1O [Compound 86]
Plant response rating, Galium [1, 15]: 90 | Galium plant response rating ([1]; 500 g ai/ha, 0 to 100 scale): 100 | Plant response rating, Blackgrass [2, 15]: 10 | Blackgrass plant response rating ([2]; 500 g ai/ha, 0 to 100 scale): 30 | Plant response rating, Sedge, Umbrella [3]: 60 | Plant response rating, Rice [4]: 15 | Plant response rating, Ducksalad [5]: 20 | Plant response rating, Barnyardgrass [6]: 0 | Plant response rating, Foxtail, Giant [7, 16]: 50 | Foxtail, Giant plant response rating [7, 17]: 70 | Foxtail, Giant plant response rating [7, 18]: 20 | Plant response rating, Foxtail, Giant [7, 19]: 70 | Plant response rating, Ragweed [8, 16]: 80 | Ragweed plant response rating [8, 17]: 80 | Ragweed plant response rating [8, 18]: 40 | Plant response rating, Ragweed [8, 19]: 90 | Plant response rating, Wheat [9, 15]: 0 | Wheat plant response rating ([9]; 500 g ai/ha, 0 to 100 scale): 0 | Plant response rating, Corn [10, 15]: 0 | Corn plant response rating ([10]; 500 g ai/ha, 0 to 100 scale): 0 | Plant response rating, Kochia [11, 16]: 70 | Kochia plant response rating [11, 17]: 80 | Kochia plant response rating [11, 18]: 0 | Plant response rating, Kochia [11, 19]: 40 | Plant response rating, Pigweed [12, 16]: 90 | Pigweed plant response rating [12, 17]: 90 | Pigweed plant response rating [12, 18]: 80 | Plant response rating, Pigweed [12, 19]: 100 | Plant response rating, Ryegrass, Italian [13, 16]: 0 | Ryegrass, Italian plant response rating [13, 17]: 50 | Ryegrass, Italian plant response rating [13, 18]: 0 | Plant response rating, Ryegrass, Italian [13, 19]: 40 | Plant response rating, Barnyardgrass [14, 16]: 30 | Barnyardgrass plant response rating [14, 17]: 10 | Barnyardgrass plant response rating [14, 18]: 0 | Plant response rating, Barnyardgrass [14, 19]: 40
